Experimental data as given in patent publication US20260272944A1, “PYRIDO[3,4-D]PYRIMIDINONE AND PYRIMDLLNE ARYL HYDROCARBON RECEPTOR ANTAGONISTS AND USES THEREOF” (ALLIANTHERA (SUZHOU) BIOPHARMACEUTICAL CO., LTD., priority 2023, published 2026).

What follows are compounds tested against T1, Human Aryl Hydrocarbon Receptor (AhR) (Homo sapiens, UniProt P35869) (assay: AhR reporter assay (Human Aryl Hydrocarbon Receptor (AhR) Reporter Assay System, INDIGO Bioscience)). Settings: AHR inhibition at 10 nM test compound; AhR Reporter Cells activated with 200 μM kynurenic acid, 24 hours; firefly luciferase; normalized by positive and negative controls.
T1 construct: purchased INDIGO Bioscience IB06001-32; host or cells: AhR Reporter Cell (the kit's proprietary reporter cells)
T1 sequence (P35869 11-848): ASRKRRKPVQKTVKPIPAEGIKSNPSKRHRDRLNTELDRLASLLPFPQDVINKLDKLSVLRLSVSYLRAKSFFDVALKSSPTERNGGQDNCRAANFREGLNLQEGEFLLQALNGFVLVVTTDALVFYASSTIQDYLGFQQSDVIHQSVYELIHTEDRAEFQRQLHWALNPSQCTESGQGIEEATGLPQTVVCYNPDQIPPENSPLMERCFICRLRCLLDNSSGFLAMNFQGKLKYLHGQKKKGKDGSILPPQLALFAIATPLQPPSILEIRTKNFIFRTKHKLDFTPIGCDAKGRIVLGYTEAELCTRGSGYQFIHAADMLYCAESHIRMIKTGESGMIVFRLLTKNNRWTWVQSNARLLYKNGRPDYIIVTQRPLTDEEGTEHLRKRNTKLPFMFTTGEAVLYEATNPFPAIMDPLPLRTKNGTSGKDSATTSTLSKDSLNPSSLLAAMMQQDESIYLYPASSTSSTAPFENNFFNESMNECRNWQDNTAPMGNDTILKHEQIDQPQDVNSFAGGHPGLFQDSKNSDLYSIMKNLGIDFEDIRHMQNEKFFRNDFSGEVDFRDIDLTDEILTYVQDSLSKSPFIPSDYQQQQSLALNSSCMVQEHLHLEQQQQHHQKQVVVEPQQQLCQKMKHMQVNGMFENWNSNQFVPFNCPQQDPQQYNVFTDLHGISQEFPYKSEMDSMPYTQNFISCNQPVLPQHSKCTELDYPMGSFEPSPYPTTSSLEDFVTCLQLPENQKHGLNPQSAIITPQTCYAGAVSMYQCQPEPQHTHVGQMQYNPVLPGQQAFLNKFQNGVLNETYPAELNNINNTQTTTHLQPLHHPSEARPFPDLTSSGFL
Type: cell-based
Experimental: The AhR reporter assay was performed following the protocol of the Human Aryl Hydrocarbon Receptor (AhR) Reporter Assay System (INDIGO Bioscience, #IB06001-32). AhR Reporter Cell was thawed and pre-incubated in Cell Recovery Medium (CRM) for 6 hours. The media was then removed and the cells were incubated with Compound Screening Medium (CSM) supplemented with 200 μM kynurenic acid for 24 hours in the absence (negative control) or presence of 10 nM test compounds. For positive inhibition control, cells activated with 200 μM kynurenic acid were incubated in the presence of literature AHR antagonists; alternatively un-activated cells were used as positive inhibition control. Following 24 hours incubation, the media was removed and Luciferase Detection Reagent (LDR) added. The firefly luciferase activity was quantified using a plate reader. Results were normalized by positive and negative controls.
The results of AHR inhibition at 10 nM for compounds as disclosed herein is reported in the below table.
C[C@@H](CO)n1cnc2c(-c3cnn(C)c3)nc(-c3ccc(N4CCN(S(C)(=O)=O)CC4)cc3)cc2c1=O [Compound 31] showed an inhibition at 0.01 µM of 24%.
Compound C[C@@H](CO)n1cnc2c(-c3cnn(C)c3)nc(/C=C/c3ccc(F)cc3)cc2c1=O [Compound 20] has an inhibition at 0.01 µM of 70%.
Compound C[C@@H](CO)n1cnc2c(-c3cnn(C)c3)nc(-c3cnc(N4CCOCC4)nc3)cc2c1=O [Compound 26] has an inhibition at 0.01 µM of 24%.
Work on C[C@@H](CO)NC(=O)c1cc(-c2ccc(-c3cccc(F)c3)nc2)nc(-c2cnn(C)c2)n1 [Compound 68] yielded an inhibition at 0.01 µM of 62%.
Work on C[C@@H](CO)NC(=O)c1cc(N2Cc3ccc(F)cc3C2)nc(-c2cnn(C)c2)n1 [Compound 93] yielded an inhibition at 0.01 µM of 99%.
C[C@@H](CO)NC(=O)c1cc(-c2ccc(-c3ccc(=O)n(C)c3)cc2)nc(-c2cnn(C)c2)n1 [Compound 112] showed an inhibition at 0.01 µM of 10%.
With Cc1cc(-c2cc3c(=O)n([C@@H](C)CO)cnc3c(-c3cnn(C)c3)n2)ccc1N1CCOCC1 [Compound 57] the inhibition at 0.01 µM was 29%.
For C[C@@H](CO)n1cnc2c(-c3cnn(C)c3)nc(N3CCN(c4ccc(F)cc4F)CC3)cc2c1=O [Compound 122], the inhibition at 0.01 µM was 46%.
C[C@@H](CO)NC(=O)c1cc(N2CCN(c3ccc(F)cc3)CC2)nc(-c2cnn(C)c2)n1 [Compound 60] gave an inhibition at 0.01 µM of 21%.
C[C@H](NC(=O)c1cc(N2Cc3ccccc3C2)nc(-c2cnn(C)c2)n1)C(=O)O [Compound 126] gave an inhibition at 0.01 µM of 5%.
C[C@@H](CO)NC(=O)c1cc(N2Cc3cccnc3C2)nc(-c2cnn(C)c2)n1 [Compound 117] gave an inhibition at 0.01 µM of 46%.
With C[C@@H](CO)NC(=O)c1cc(-c2ccc(N3CCN(S(C)(=O)=O)CC3)cc2)nc(-c2cnn(C)c2)n1 [Compound 91] the inhibition at 0.01 µM was 7%.
C[C@@H](CO)n1cnc2c(-c3cnn(C)c3)nc(-c3ccc(C(=O)N4CCC(O)CC4)cc3)cc2c1=O [Compound 35] was tested, and the inhibition at 0.01 µM was 5%.
Compound C[C@@H](CO)n1cnc2c(-c3cnn(C)c3)nc(-c3ccc(C4CCOCC4)cc3)cc2c1=O [Compound 5] has an inhibition at 0.01 µM of 40%.
Compound CC1COCCN1c1ccc(-c2cc3c(=O)n([C@@H](C)CO)cnc3c(-c3cnn(C)c3)n2)cn1 (stereo partly drawn) [Compound 27] has an inhibition at 0.01 µM of 45%.
Compound C[C@@H](CO)n1cnc2c(-c3cnn(C)c3)nc(N3CC=C(c4ccc(F)cc4)CC3)cc2c1=O [Compound 16] has an inhibition at 0.01 µM of 82%.
In the case of C[C@@H](CO)NC(=O)c1cc(-c2ccc(C3CCOCC3)cc2)nc(-c2cnn(C)c2)n1 [Compound 71], the inhibition at 0.01 µM is reported as 37%.
With C[C@@H](CO)n1cnc2c(-c3cnn(C)c3)nc(N3CCN(c4ccccc4)CC3)cc2c1=O [Compound 123] the inhibition at 0.01 µM was 91%.
With Cc1nn(C)c2cc(-c3cc(C(=O)N[C@@H](C)CO)nc(-c4cnn(C)c4)n3)ccc12 [Compound 67] the inhibition at 0.01 µM was 33%.
C[C@@H](CO)n1cnc2c(-c3cnn(C)c3)nc(-c3ccc(C(=O)N4CCNCC4)cc3)cc2c1=O [Compound 32] showed an inhibition at 0.01 µM of -16%.
C[C@@H](CO)NC(=O)c1cc(-c2ccc(N3CCOCC3)cc2)nc(-c2cnn(C)c2)n1 [Compound 62] gave an inhibition at 0.01 µM of 29%.
